According to patent publication US7829560B2, “1,4-disubstituted naphthalenes as inhibitors of P38 MAP kinase” (Arqule, Inc., priority 2004, dated 2010):

How the values were obtained:
[1] = system: TNFα release from THP-1 cells; experiment: Inhibition of TNFα release from LPS-stimulated THP-1 cells, ELISA; format: cell-based; settings: Homo sapiens, THP-1, THP-1 cells, read-out: [CELL] THP-1, IC50, TNF ALPHA, ELISA
From the text: Compounds of the invention are screened for the ability to inhibit TNFα and IL-1β release from THP-1 cells stimulated with lipopolysaccharide (LPS) in vitro. The ability of compounds to inhibit TNFα and IL-1β release in this in vitro assay is correlated with the inhibition of p38 activity and TNFα and IL-1β expression in vivo, and is therefore an indicator of potential in vivo therapeutic activity (Lee J. C. et al, Ann. N.Y. Acad. Sci. 696: 149-170, 1993 and Nature, 372: 739-746, 1994).
Materials: THP-1 cells from ATCC (TIB202) are maintained at 37° C., 5% CO2 in RPMI 1640 media (available from MediaTech, Herndon, Va.) containing 4.5 g/L glucose, supplemented with 10% fetal bovine serum, 1% penicillin/streptomycin and 50 μM β-mercaptoethanol.
Methods: Test compounds are initially dissolved in RPMI media with 1% DMSO (v/v). Compounds are then serially diluted in RPMI media for all subsequent dilutions. The assay is performed under sterile conditions. THP-1 cells at a culture density of 6-8×10^5 cells/ml are collected and resuspended in the RPMI media at 10^6 cells/ml containing 10% fetal bovine serum, no serum or 1% human serum albumin (HSA). 100 μl of resuspended cells are added to each well, which contain 100 μl of a test compound. Test compounds are prepared at twice the final concentration. Final DMSO concentration is no more than 0.5% (v/v). Cells are preincubated with compound for 30 minutes at 37° C., 5% CO2 prior to stimulation with lipopolysaccharide (LPS) (Sigma L-2880, 4 mg/ml stock in PBS). The final LPS concentration in each well is 10 or 30 μg/ml for TNFα and IL-1β release, respectively. Unstimulated control cell suspensions receive PBS vehicle only. Cell mixtures are incubated for 18 or 48 hours for TNFα and IL-1β prelease, respectively. 150 μl of supernatants are taken and transferred to a fresh plate and stored at −20° C. until further analysis. TNFα and IL-1β levels are measured using ELISA kits from Biosource (Catalog no. KHC3012 for TNFα; KAC1192 for IL-1β). A SpectraMAX 250 is used as the plate reader. Analysis is performed by non-linear regression to generate a dose response curve. The calculated IC50 value is the concentration of the test compound that causes a 50% decrease in TNFα or IL-1β levels.

p38α = biological target: T1, p38α (Homo sapiens, UniProt Q16539); experiment: p38 MAP Kinase assay: inhibition of ATF2 phosphorylation, ELISA; format: biochemical; settings: for inhibition at 10 µM: substrate ATF2, read-out: [ENZ] P38 ALPHA, PCT INH, ELISA (10 uM;ATF2) (Percent); for IC50: ATF2 phosphorylation, read-out: [ENZ] P38 ALPHA, IC50, ELISA
T1 construct: p38 MAP Kinases are recombinant human full-length proteins with an amino-terminal GST fusion; GST (N); purchased Upstate Biotechnology Inc; host or cells: E. coli
From the text: Compounds of the invention are screened for the ability to inhibit ATF2 phosphorylation by p38 MAP Kinase in vitro. The ability of compounds to inhibit ATF2 phosphorylation in this in vitro assay is correlated with the inhibition of p38 MAP Kinase and TNFα expression in vivo, and is therefore an indicator of potential in vivo therapeutic activity (Raingeaud, J., et al, J. Biol. Chem., 270: 7420-7426, 1995, Brinkman, M. N., et al, J. Biol. Chem. 274: 30882-30886, 1999 and Fuchs, S. Y. et al, J. Biol. Chem. 275: 12560-12564, 2000).
Materials: All kinases and the substrate ATF2 are acquired from Upstate Biotechnology Inc. p38 MAP Kinases are recombinant human full-length proteins with an amino-terminal GST fusion, expressed in and purified from E. coli. ATF2 is a GST fusion protein containing amino acids 19-96 of human ATF2 expressed in E. coli. All proteins are aliquoted and stored at −80° C.
Methods: p38 MAP Kinase assays are performed using an assay buffer containing 25 mM HEPES, pH 7.5, 10 mM MgCl2, 2 mM DTT, 20 mM β-glycerophosphate, 0.1 mM Na3VO4, 40 μM ATP and 1.25 μM of ATF2 and in the absence or presence of 1% human serum albumin, Method I and II, respectively, with 0.4-6 ng of protein depending on the kinase used. Compounds are serially diluted in DMSO and 2 μL of test compound at 25× final concentration is used. The vehicle control receives DMSO only. Test compounds are pre-incubated with 20 μl of enzyme in kinase buffer (25 mM HEPES, pH 7.5, 10 mM MgCl2, 2 mM DTT, 20 mM β-glycerophosphate, 0.1 mM Na3VO4 in the absence or presence of 1% human serum albumin, Method I and II, respectively) at room temperature for 15 minutes. […] The reactions are incubated for 30 minutes at 37° C. and terminated by the addition of 18 μl of 200 mM EDTA. An ELISA method (I or II) is used to measure the phosphorylation of ATF2 at Thr 69. Method I: 96-well high binding plates (Corning 3369) are coated with 50 μl of kinase reaction for 1 hour at 37° C. The coated plates are washed with 200 μl washing buffer (25 mM Tris HCl, pH 8.3, 192 mM glycine, 0.1% SDS and 0.05% Tween-20) three times. The plates are then washed three times with SuperBlock in TBS (Pierce, 37535). After blocking, plates are incubated with 50 μl of rabbit anti-phospho-ATF2 antibody (Cell Signaling, 9221L, 1:500) for 30 minutes at 37° C. Plates are washed three times with washing buffer prior to incubation with 50 μl HRP-conjugated goat anti-rabbit antibody (Cell Signaling, 7074, 1:500) for 30 minutes at 37° C. Plates are then washed three times with washing buffer before incubation with 50 μl of Ultra TMB-ELISA (Pierce, 34028) for 8 minutes at room temperature. Finally, 50 ul of phosphoric acid (1 M) is added to stop reactions and plate absorbance is read at 450 nm on a SpectraMax 250 plate reader. Method II: 96-well high binding plates (Corning 3369) are coated with 400 ng of monoclonal antibody against GST-tag (Cell signaling) in 100 μl containing sodium borate (pH 8.3) for 90 minutes at 37° C. The plates are washed with 200 μl washing buffer (25 mM Tris HCl, pH 7.2, 150 mM NaCl and Tween-20) three times and blocked with 200 μl of 5% nonfat milk for 30 minutes at room temperature. The plates are washed three times with washing buffer, 50 μl of stopped kinase reaction are added to each well and incubated for 80 minutes at 37° C. The plates are washed three times with 200 μl washing buffer, and the plates are incubated with 50 μl of rabbit anti-phospho-ATF2 antibody (Cell Signaling, 9221L, 1:500) for 30 minutes at 37° C. Plates are washed three times with washing buffer prior to incubation with 50 μl HRP-conjugated goat anti-rabbit antibody (Cell Signaling, 7074, 1:500) for 30 minutes at 37° C. Plates are washed three times with washing buffer before incubation with 50 μl of Ultra TMB-ELISA (Pierce, 34028) for 25 minutes at room temperature. Finally, 50 μl of phosphoric acid (1 M) is added to stop reactions and plate absorbance is read at 450 nm on a SpectraMax 250 plate reader. […]

T1 sequence (Q16539 whole entry, the tested form may be a part): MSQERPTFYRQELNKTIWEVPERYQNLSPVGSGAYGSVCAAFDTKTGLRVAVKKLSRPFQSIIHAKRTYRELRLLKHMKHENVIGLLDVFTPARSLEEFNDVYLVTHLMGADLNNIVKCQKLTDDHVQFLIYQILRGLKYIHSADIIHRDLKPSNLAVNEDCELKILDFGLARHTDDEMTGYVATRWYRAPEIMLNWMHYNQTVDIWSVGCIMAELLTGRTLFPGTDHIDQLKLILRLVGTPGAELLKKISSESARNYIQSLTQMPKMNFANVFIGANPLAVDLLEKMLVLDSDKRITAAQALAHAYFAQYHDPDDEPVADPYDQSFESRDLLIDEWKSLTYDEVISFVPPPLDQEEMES

Row | SMILES | IC50 [1] | inhibition at 10 µM (p38α) | IC50 (p38α)
1 | CCCC/C=C/c1cccc(C(=O)Nc2ccc(OCCN3CCOCC3)c3ccccc23)c1 [Compound B99] | 5.57 µM | 45% | > 10 µM
2 | O=C(Nc1ccc(OCCN2CCOCC2)c2ccccc12)c1cccc(CN2CCCCC2)c1 [Compound B55] | > 10 µM | – | > 10 µM
3 | CCOc1ccc(-c2cccc(C(=O)Nc3ccc(OCCN4CCOCC4)c4ccccc34)c2)cc1 [Compound B107] | – | 2% | –
4 | O=C(Nc1ccc(OCCN2CCOCC2)c2ccccc12)c1cc(C(F)(F)F)cc(C(F)(F)F)c1 [Compound B83] | – | 18% | –
5 | O=C(Nc1ccc(OCCN2CCOCC2)c2ccccc12)c1cccc(-c2cc(C(F)(F)F)cc(C(F)(F)F)c2)c1 [Compound B92] | – | 0% | –
6 | O=C(Nc1ccc(OCCN2CCOCC2)c2ccccc12)c1cccc(-c2ccc(OC(F)(F)F)cc2)c1 [Compound B87, 4′-Trifluoromethoxy-biphenyl-3-carboxylic acid [4-(2-morpholin-4-yl-ethoxy)-naphthalen-1-yl]-amide] | – | 29% | > 100 µM
7 | CN1CCN(CCOc2ccc(NC(=O)c3ccnc(N4CCOCC4)c3)c3ccccc23)CC1 [Compound B21] | – | 19.5% | –
8 | O=C(Nc1ccc(OCCN2CCCCC2)c2ccccc12)c1ccc(CN2CCS(=O)(=O)CC2)cc1 [Compound B14] | – | 6% | –
9 | Cc1cc(C(=O)Nc2ccc(OCCN3CCOCC3)c3ccccc23)cc(Cl)n1 [Compound B64] | – | 3% | –
10 | O=C(Nc1ccc(OCCN2CCOCC2)c2ccccc12)c1cccc(C(=O)c2ccccc2)c1 [Compound B78] | – | 34% | > 10 µM
11 | O=C(Nc1ccc(OCCN2CCOCC2)c2ccccc12)c1cccc2c1C(=O)c1ccccc1-2 [Compound B74] | – | 31% | –
12 | CC(C)c1cc(C(=O)Nc2ccc(OCCN3CCOCC3)c3ccccc23)c(O)c(C(C)C)c1 [Compound B76] | – | 0% | –

Further lines, results first:

Row | IC50 [1] | inhibition at 10 µM (p38α) | IC50 (p38α) | SMILES
13 | 6.15 µM | 50.5% | 5.75 µM | CC(=O)N1CCN(c2cc(C(=O)Nc3ccc(OCCN4CCOCC4)c4ccccc34)ccn2)CC1 [Compound B123, 2-(4-Acetyl-piperazin-1-yl)-N-[4-(2-morpholin-4-yl-ethoxy)-naphthalen-1-yl]-isonicotinamide]
14 | > 10 µM | 58.5% | 1.82 µM | CCOC(=O)C1CCN(CCOc2ccc(NC(=O)c3cc(F)cc(N4CCCCC4)c3)c3ccccc23)CC1 [Compound B160, 1-{2-[4-(3-Fluoro-5-piperidin-1-yl-benzoylamino)-naphthalen-1-yloxy]-ethyl}-piperidine-4-carboxylic acid ethyl ester]
15 | > 10 µM | 72% | 2.67 µM | O=C(Nc1ccc(OCCN2CCC(O)CC2)c2ccccc12)c1cc(F)cc(N2CCCCC2)c1 [Compound B158, 3-Fluoro-N-{4-[2-(4-hydroxypiperidin-1-yl)-ethoxy]-naphthalen-1-yl}-5-piperidin-1-yl-benzamide]
16 | > 1 µM | – | 0.0105 µM | CCOC(=O)N1CCN(c2nccc(Oc3ccc(NC(=O)c4cc(F)cc(N5CCOCC5)c4)c4ccccc34)n2)CC1 [Compound B329, Ethyl-4-[4-({4-[(3-fluoro-5-morpholin-4-ylbenzoyl)amino]-1-naphthyl}oxy)pyrimidin-2-yl]piperazine-1-carboxylate]
17 | > 10 µM | – | > 10 µM | O=C(Nc1ccc(OCCN2CCOCC2)c2ncccc12)c1cc(F)cc(N2CCOCC2)c1 [Compound B244]
18 | 4.03 µM | – | > 10 µM | O=C(Nc1ccc(OCCN2CCOCC2)c2ccccc12)c1cccc(-c2ccc(C(F)(F)F)cc2)c1 [Compound B271]
19 | > 1 µM | – | – | CN(C)C(=O)[C@@H]1CCCN1c1nccc(Oc2ccc(NC(=O)c3cc(F)cc(N4CCCCC4)c3)c3ccccc23)n1 [Compound B408]
20 | 3.4 µM | – | – | O=C(Nc1ccc(OCCN2CCOCC2)c2ccccc12)c1cccc(-c2cccc(F)c2)c1 [Compound B272]
21 | – | 12% | – | CC(C)(C)CCNc1cccc(C(=O)Nc2ccc(OCCN3CCOCC3)c3ccccc23)n1 [Compound B147]
22 | – | 0% | – | O=C(Nc1ccc(OCCN2CCOCC2)c2ccccc12)c1cccc(-c2ccc(C3CCCCC3)cc2)c1 [Compound B118]
23 | – | 7% | – | O=C(Nc1ccc(OCCN2CCOCC2)c2ccccc12)c1cccc(N2CCN(c3ccc(F)cc3)CC2)n1 [Compound B139]
24 | – | 4% | – | CCCCc1ccc(-c2cccc(C(=O)Nc3ccc(OCCN4CCOCC4)c4ccccc34)c2)cc1 [Compound B117]
25 | – | 19% | > 100 µM | Cc1cc(C(=O)Nc2ccc(OCCN3CCOCC3)c3ccccc23)cc(N2CCCC2c2ccccc2Cl)n1 (stereo not drawn) [Compound B156]
26 | – | 10% | – | CC(=O)N1CCN(c2cccc(C(=O)Nc3ccc(OCCN4CCOCC4)c4ccccc34)n2)CC1 [Compound B136]
27 | – | 36% | – | O=C(Nc1ccc(OCCN2CCOCC2)c2ccccc12)c1cccc(N2CCc3ccccc3C2)c1 [Compound B168]
